Laboratory results: ChEMBL document CHEMBL1151641, “Antitumor agents, 71. Nudaphantin, a new cytotoxic germacranolide, and elephantopin from Elephantopus nudatus” (1985)
Values after ≈ are worked out from the molar mass of the structure shown.

How the values were obtained:
Assay type in all cases: functional
KB = test: Cytotoxicity against human KB cells
P388 [1] = test: In vivo antileukemic activity against mouse P388 cells at 10 mg/kg relative to control
P388 [2] = test: In vivo antileukemic activity against mouse P388 cells at 40 mg/kg relative to control

Row | SMILES | EC50 (KB; Homo sapiens, KB, read-out: ED50 (the source's name)) [µg/mL] | ED50 (KB) [µg/mL] | T/C (P388 [1]) [%] | T/C (P388 [2]) [%]
1 | C=C(C)C(=O)O[C@H]1CC2=C[C@@H](C[C@@]3(C)O[C@@H]3[C@H]3OC(=O)C(=C)[C@@H]31)OC2OCC (some centres undefined) [NUDAPHANTIN] | 0.31 (≈ 0.794 µM) |  |  | 
2 | C=C(C)C(=O)O[C@H]1CC2=C[C@@H](C[C@@]3(C)O[C@@H]3[C@H]3OC(=O)C(=C)[C@@H]31)OC2=O [ELEPHANTOPIN] |  | 0.32 (≈ 0.888 µM) | 160 | 171
